Results as given in patent US20110294722A1, “ANTIMICROBIAL PEPTIDES” (priority 2008, published 2011).
Like-named read-outs stand apart in the source and are kept apart here. No end group written: not given here.

Columns and labels:
Format in all cases: cell-based
[1] = test system: Pectobacterium carotovorum; conditions: Pectobacterium carotovorum; for MIC (>90% inhibition): 1-2 days at 25° C.; for LC (lethal concentration, 100% inhibition): at least 4 days of incubation
Protocol: (§1) In-vitro inhibition assays were performed in sterile flat-bottom 96-well plates (Greiner bio-one, Frickenhausen). Antimicrobial peptides were dissolved in 0.01% acetic acid containing 0.2% BSA (500 μg/ml), filter sterilized and stored at −20° C. For inhibition assays dilutions of peptides ranging from 5 to 200 μg/ml were prepared and 10 μl (antibacterial assay) or 20 (antifungal assay) of each concentration was loaded per well.
(§2) Bacteria colonies from overnight agar plate cultures were resuspended into 5 ml LB-medium or HPG-medium (OD600 nm=0.08-0.1) and diluted into LB-medium/HPG-medium (1:100). 90 μl of this suspension containing about 10^5-10^6 CFU/ml of tested bacteria were added to each well resulting in final peptide concentrations of 0, 0.5, 1, 2, 5, 10, and 20 μg/ml. […] The lowest concentration, in which there is no observable growth (>90% inhibition) is referred to as minimal inhibitory concentration (MIC). […] For each peptide concentration two identical inhibition assays were performed.

Pseudomonas corrugata = conditions: Pseudomonas corrugata; for MIC (>90% inhibition): 1-2 days at 25° C.; for LC (lethal concentration, 100% inhibition): at least 4 days of incubation
Protocol: as §1, §2

[2] = test system: Pseudomonas syringae pv. syringae; conditions: Pseudomonas syringae pv. syringae; for MIC (>90% inhibition): 1-2 days at 25° C.; for LC (lethal concentration, 100% inhibition): at least 4 days of incubation
Protocol: as §1, §2

[3] = test system: Pseudomonas syringae pv. tomato; conditions: for LC (lethal concentration, 100% inhibition): at least 4 days of incubation
Protocol: as §1, §2

[4] = test system: Clavibacter michiganensis; assay: In-vitro inhibition assay (MIC and LC), Example 3; conditions: for MIC (>90% inhibition): 1-2 days at 25° C.; for LC (lethal concentration, 100% inhibition): at least 4 days of incubation
Protocol: as §1, §2

Xanthomonas vesicatoria = assay: In-vitro inhibition assay (MIC and LC), Example 3; conditions: for MIC (>90% inhibition): 1-2 days at 25° C.; for LC (lethal concentration, 100% inhibition): at least 4 days of incubation
Protocol: as §1, §2

[5] = Pseudomonas syringae pv. tomato, 1-2 days at 25° C.
[6] = Pseudomonas syringae pv. tomato

Substance: RKKKFKFFKRLF-NH2 [SP1-12]
- MIC (>90% inhibition) [1]: >10/>10 μg/ml
- LC (lethal concentration, 100% inhibition) [1]: >10/>10 μg/ml
- MIC (>90% inhibition) (Pseudomonas corrugata): 0.25 µg/mL
- LC (lethal concentration, 100% inhibition) (Pseudomonas corrugata): 0.5 µg/mL
- MIC (>90% inhibition) [2]: 0.1 µg/mL
- LC (lethal concentration, 100% inhibition) [2]: 0.5 µg/mL
- MIC (>90% inhibition) [3, 5]: >10/>10 μg/ml
- LC (lethal concentration, 100% inhibition) [3, 6]: >10/>10 μg/ml
- MIC (>90% inhibition) [4]: 0.5/0.5 μg/ml
- LC (lethal concentration, 100% inhibition) [4]: 0.5/0.5 μg/ml
- MIC (>90% inhibition) (Xanthomonas vesicatoria): 0.5 µg/mL
- LC (lethal concentration, 100% inhibition) (Xanthomonas vesicatoria): 2.5 µg/mL

Substance: RKKKAKIIKKII-NH2 [SP1-10]
- MIC (>90% inhibition) [1]: >10/>10 μg/ml
- LC (lethal concentration, 100% inhibition) [1]: >10/>10 μg/ml
- MIC (>90% inhibition) (Pseudomonas corrugata): 10/10 μg/ml
- LC (lethal concentration, 100% inhibition) (Pseudomonas corrugata): 10/10 μg/ml
- MIC (>90% inhibition) [2]: 1.0 µg/mL
- LC (lethal concentration, 100% inhibition) [2]: 5.0 µg/mL
- MIC (>90% inhibition) [3, 5]: >10/>10 μg/ml
- LC (lethal concentration, 100% inhibition) [3, 6]: >10/>10 μg/ml
- MIC (>90% inhibition) [4]: >10/>10 μg/ml
- LC (lethal concentration, 100% inhibition) [4]: >10/>10 μg/ml
- MIC (>90% inhibition) (Xanthomonas vesicatoria): >10/>10 μg/ml
- LC (lethal concentration, 100% inhibition) (Xanthomonas vesicatoria): >10/>10 μg/ml

Substance: RKKKLKFFKRLF-NH2 [Sp1-11]
- MIC (>90% inhibition) [1]: >10/>10 μg/ml
- LC (lethal concentration, 100% inhibition) [1]: >10/>10 μg/ml
- MIC (>90% inhibition) (Pseudomonas corrugata): 0.25 µg/mL
- LC (lethal concentration, 100% inhibition) (Pseudomonas corrugata): 1.0 µg/mL
- MIC (>90% inhibition) [2]: 1.0 µg/mL
- LC (lethal concentration, 100% inhibition) [2]: 2.5 µg/mL
- MIC (>90% inhibition) [3, 5]: >10/>10 μg/ml
- LC (lethal concentration, 100% inhibition) [3, 6]: >10/>10 μg/ml
- MIC (>90% inhibition) [4]: 2.5 µg/mL
- LC (lethal concentration, 100% inhibition) [4]: 5.0 µg/mL
- MIC (>90% inhibition) (Xanthomonas vesicatoria): 2.5 µg/mL
- LC (lethal concentration, 100% inhibition) (Xanthomonas vesicatoria): 10 µg/mL

Substance: KRKKLLKRLL-NH2 [SP1-15]
- MIC (>90% inhibition) [1]: >10/>10 μg/ml
- LC (lethal concentration, 100% inhibition) [1]: >10/>10 μg/ml
- MIC (>90% inhibition) (Pseudomonas corrugata): <0.1/<0.1 μg/ml
- LC (lethal concentration, 100% inhibition) (Pseudomonas corrugata): <0.1/<0.1 μg/ml
- MIC (>90% inhibition) [2]: 0.1 µg/mL
- LC (lethal concentration, 100% inhibition) [2]: 1.0 µg/mL
- MIC (>90% inhibition) [3, 5]: 1.0/1.0 μg/ml
- LC (lethal concentration, 100% inhibition) [3, 6]: 1.0/1.0 μg/ml
- MIC (>90% inhibition) [4]: 5.0/5.0 μg/ml
- LC (lethal concentration, 100% inhibition) [4]: 5.0/5.0 μg/ml
- MIC (>90% inhibition) (Xanthomonas vesicatoria): 5.0/5.0 μg/ml
- LC (lethal concentration, 100% inhibition) (Xanthomonas vesicatoria): 5.0/5.0 μg/ml

Substance: RKKKLKIIKRLI-NH2 [SP1-7]
- MIC (>90% inhibition) [1]: >10/>10 μg/ml
- LC (lethal concentration, 100% inhibition) [1]: >10/>10 μg/ml
- MIC (>90% inhibition) (Pseudomonas corrugata): 0.5 µg/mL
- LC (lethal concentration, 100% inhibition) (Pseudomonas corrugata): 2.5 µg/mL
- MIC (>90% inhibition) [2]: 0.1 µg/mL
- LC (lethal concentration, 100% inhibition) [2]: 0.25 µg/mL
- MIC (>90% inhibition) [3]: 10/10 μg/ml
- LC (lethal concentration, 100% inhibition) [3, 6]: 10/10 μg/ml
- MIC (>90% inhibition) [4]: 2.5/2.5 μg/ml
- LC (lethal concentration, 100% inhibition) [4]: 2.5/2.5 μg/ml
- MIC (>90% inhibition) (Xanthomonas vesicatoria): 1.0/1.0 μg/ml
- LC (lethal concentration, 100% inhibition) (Xanthomonas vesicatoria): 1.0/1.0 μg/ml

Substance: RKKKVKLLKRLV-NH2 [SP1-3]
- MIC (>90% inhibition) [1]: >10/>10 μg/ml
- LC (lethal concentration, 100% inhibition) [1]: >10/>10 μg/ml
- MIC (>90% inhibition) (Pseudomonas corrugata): 2.5/2.5 μg/ml
- LC (lethal concentration, 100% inhibition) (Pseudomonas corrugata): 2.5/2.5 μg/ml
- MIC (>90% inhibition) [2]: 0.25 µg/mL
- LC (lethal concentration, 100% inhibition) [2]: 1.0 µg/mL
- MIC (>90% inhibition) [3, 5]: 5.0 µg/mL
- LC (lethal concentration, 100% inhibition) [3, 6]: 10 µg/mL
- MIC (>90% inhibition) [4]: >10/>10 μg/ml
- LC (lethal concentration, 100% inhibition) [4]: >10/>10 μg/ml
- MIC (>90% inhibition) (Xanthomonas vesicatoria): >10/>10 μg/ml
- LC (lethal concentration, 100% inhibition) (Xanthomonas vesicatoria): >10/>10 μg/ml

Substance: KKKKKKIIKKII-NH2 [SP1-22]
- MIC (>90% inhibition) [1]: >10/>10 μg/ml
- LC (lethal concentration, 100% inhibition) [1]: >10/>10 μg/ml
- MIC (>90% inhibition) (Pseudomonas corrugata): >10/>10 μg/ml
- LC (lethal concentration, 100% inhibition) (Pseudomonas corrugata): >10/>10 μg/ml
- MIC (>90% inhibition) [2]: 2.5 µg/mL
- LC (lethal concentration, 100% inhibition) [2]: 10 µg/mL
- MIC (>90% inhibition) [3, 5]: 1.0 µg/mL
- LC (lethal concentration, 100% inhibition) [3, 6]: 5.0 µg/mL
- MIC (>90% inhibition) [4]: >10/>10 μg/ml
- LC (lethal concentration, 100% inhibition) [4]: >10/>10 μg/ml
- MIC (>90% inhibition) (Xanthomonas vesicatoria): >10/>10 μg/ml
- LC (lethal concentration, 100% inhibition) (Xanthomonas vesicatoria): >10/>10 μg/ml
